Measurements as given in patent US20230151371A1, “POLYPEPTIDES HAVING EPOXY GROUP-REMOVING CATALYTIC ACTIVITY, NUCLEIC ACIDS ENCODING THE POLYPEPTIDES AND USE THEREOF” (priority 2020, published 2023).
Where two headings read alike, the source gives them in different places.

What was measured:
[1] = test system: normal human esophageal epithelial cells (HEECs)
[2] = test system: human embryonic kidney cell 293-derived line (293T)
[3] = test system: pancreatic cancer cell line (PATU8988)

Measured: cell viability (CCK-8, OD450)

3-acetyl-deoxynivalenol [3-ADON]
decreased sharply: [1]; HEEC, 48 h treatment | [2]; 293T, 48 h treatment | [3]; PATU8988, 48 h treatment

15-acetyl-deoxynivalenol [15-ADON]
decreased sharply: [1]; HEEC, 48 h treatment | [2]; 293T, 48 h treatment | [3]; PATU8988, 48 h treatment

HT-2 toxin
decreased sharply: [1] | [2] | [3]

deoxynivalenol [DON]
decreased sharply: [1]; HEEC, 48 h treatment | [2]; 293T, 48 h treatment | [3]; PATU8988, 48 h treatment

fusarenon-X [FUS-X]
decreased sharply: [1]; HEEC, 48 h treatment | [2] | [3]
